Experimental data taken from ChEMBL document CHEMBL1201862, “PubChem BioAssay data set” (2004).
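Test compounds were applied to cells in 96-well plates for 48 hours at 5 doses. GI50 marks 50% less growth.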 Calls of active or inactive are those of the source. Rule as the data show it: active = GI50 up to about 1.1 µM and inactive = higher.

Tests used:
Assay in all cases: growth of human tumour cells (NCI), 48 h
Malme-3M = system: Malme-3M
UO-31 = system: UO-31
SNB-75 = system: SNB-75
NCI-H23 = system: NCI-H23
SR = system: SR
UACC-257 = system: UACC-257
M14 = system: M14
CCRF-CEM = system: CCRF-CEM
BT-549 = system: BT-549
IGROV-1 = system: IGROV-1
RXF 393 = system: RXF 393
SF-268 = system: SF-268
Hs-578T = system: Hs-578T
SW-620 = system: SW-620
SF-295 = system: SF-295
HCC 2998 = system: HCC 2998
PC-3 = system: PC-3
T47D = system: T47D
LOX IMVI = system: LOX IMVI
SF-539 = system: SF-539

Compound | GI50 (Malme-3M) | GI50 (UO-31) | GI50 (SNB-75) | GI50 (NCI-H23) | GI50 (SR) | GI50 (UACC-257) | GI50 (M14) | GI50 (CCRF-CEM) | GI50 (BT-549) | GI50 (IGROV-1) | GI50 (RXF 393) | GI50 (SF-268) | GI50 (Hs-578T) | GI50 (SW-620) | GI50 (SF-295) | GI50 (HCC 2998) | GI50 (PC-3) | GI50 (T47D) | GI50 (LOX IMVI) | GI50 (SF-539)
COc1ccc(/C=C/C(=O)Oc2ccc(/C=C3\CCCCC3=O)cc2)cc1 | > 79.1 µM (inactive) | > 100 µM (inactive) | > 88.3 µM (inactive) | 97.1 µM (inactive) | > 100 µM (inactive) | > 67.8 µM (inactive) | > 100 µM (inactive) | 1.93 µM (inactive) | 72.3 µM (inactive) | 38.6 µM (inactive) | > 100 µM (inactive) | 8 µM (inactive) | > 80.5 µM (inactive) | > 93.1 µM (inactive) | 18.4 µM (inactive) | > 39.1 µM (inactive) | > 100 µM (inactive) | > 100 µM (inactive) | > 100 µM (inactive) | > 100 µM (inactive)
O=C(CCc1ccc(O)c(O)c1)NCCc1ccc(O)c(O)c1 | > 100 µM (inactive) | > 100 µM (inactive) | > 100 µM (inactive) | > 100 µM (inactive) | 23.9 µM (inactive) | > 100 µM (inactive) | > 100 µM (inactive) | 27.9 µM (inactive) | > 100 µM (inactive) | > 100 µM (inactive) | > 100 µM (inactive) | > 100 µM (inactive) | > 100 µM (inactive) | 67.6 µM (inactive) | > 100 µM (inactive) | > 100 µM (inactive) | > 100 µM (inactive) | > 100 µM (inactive) | 39.7 µM (inactive) | > 100 µM (inactive)
C[N+]1(CC[N+]2(C)CCCC2c2cccnc2)CCCC1c1cccnc1 (centres undefined) | 59.3 µM (inactive) | > 100 µM (inactive) | > 100 µM (inactive) | > 100 µM (inactive) | > 100 µM (inactive) | 76.2 µM (inactive) | > 100 µM (inactive) | – | > 100 µM (inactive) | > 100 µM (inactive) | > 100 µM (inactive) | > 100 µM (inactive) | > 100 µM (inactive) | > 100 µM (inactive) | > 100 µM (inactive) | > 100 µM (inactive) | > 100 µM (inactive) | 42.4 µM (inactive) | > 100 µM (inactive) | > 100 µM (inactive)
C[C@]12C=CC(=O)C=C1CC[C@@H]1[C@@H]2CC[C@@]2(C)[C@H]1CC[C@]2(O)C(N)=O | > 100 µM (inactive) | > 100 µM (inactive) | > 100 µM (inactive) | > 100 µM (inactive) | > 100 µM (inactive) | 50.8 µM (inactive) | > 100 µM (inactive) | > 100 µM (inactive) | > 100 µM (inactive) | > 100 µM (inactive) | > 100 µM (inactive) | > 100 µM (inactive) | > 100 µM (inactive) | > 100 µM (inactive) | > 100 µM (inactive) | > 100 µM (inactive) | > 100 µM (inactive) | > 100 µM (inactive) | > 100 µM (inactive) | > 100 µM (inactive)
CCNCC(=O)O[C@]1(CC)C(=O)OCc2c1cc1n(c2=O)Cc2cc3ccccc3nc2-1 | 1.49 µM (inactive) | 0.158 µM (active) | 0.284 µM (active) | 0.0849 µM (active) | < 0.0118 µM (active) | 0.585 µM (active) | 0.163 µM (active) | 0.0142 µM (active) | 1.05 µM (active) | 2.2 µM (inactive) | 0.264 µM (active) | 0.0767 µM (active) | 25.8 µM (inactive) | 0.434 µM (active) | 0.0586 µM (active) | 1.04 µM (active) | 0.741 µM (active) | 0.203 µM (active) | 0.0893 µM (active) | 0.0466 µM (active)
NNC(=O)c1c(Cl)c(Cl)c(Cl)c(Cl)c1-c1nc2ccccc2[nH]1 | 14.3 µM (inactive) | 19.4 µM (inactive) | 12.5 µM (inactive) | 15.6 µM (inactive) | 2.63 µM (inactive) | 12.6 µM (inactive) | 9.55 µM (inactive) | 12.5 µM (inactive) | 14.9 µM (inactive) | 1.18 µM (inactive) | 3.49 µM (inactive) | 17.4 µM (inactive) | 18.1 µM (inactive) | 10 µM (inactive) | 4.91 µM (inactive) | 8.63 µM (inactive) | 16.6 µM (inactive) | 2.47 µM (inactive) | 12.7 µM (inactive) | 20.4 µM (inactive)
Cn1c(NN)nc(-c2ccc([N+](=O)[O-])cc2)c(C#N)c1=O | 16.1 µM (inactive) | 16.3 µM (inactive) | 20.4 µM (inactive) | 13.4 µM (inactive) | 18.7 µM (inactive) | 15.7 µM (inactive) | 12.5 µM (inactive) | 25.4 µM (inactive) | 12.7 µM (inactive) | 18.5 µM (inactive) | 14.9 µM (inactive) | 16 µM (inactive) | 14.5 µM (inactive) | 12.7 µM (inactive) | 16.1 µM (inactive) | 13.7 µM (inactive) | 15.3 µM (inactive) | 15.8 µM (inactive) | 17.1 µM (inactive) | –
C(=N\c1cc2cc(Sc3ccccc3)ccc2[nH]1)/c1ccccc1 | > 12.5 µM (inactive) | – | > 12.5 µM (inactive) | > 12.5 µM (inactive) | 1.32 µM (inactive) | > 12.5 µM (inactive) | > 12.5 µM (inactive) | > 12.5 µM (inactive) | > 12.5 µM (inactive) | – | > 12.5 µM (inactive) | > 12.5 µM (inactive) | > 12.5 µM (inactive) | > 12.5 µM (inactive) | 11 µM (inactive) | 6.41 µM (inactive) | > 12.5 µM (inactive) | > 12.5 µM (inactive) | 5.85 µM (inactive) | 0.741 µM (active)
CCCc1nc(Cl)nc(Cl)c1Cl | 0.453 µM (active) | – | 1.22 µM (inactive) | 0.45 µM (active) | < 0.0154 µM (active) | 0.615 µM (active) | 0.336 µM (active) | < 0.0264 µM (active) | 0.0227 µM (active) | 0.807 µM (active) | 0.256 µM (active) | 1.85 µM (inactive) | 0.475 µM (active) | 0.0675 µM (active) | 2.33 µM (inactive) | 1.08 µM (active) | 0.438 µM (active) | 0.857 µM (active) | 0.0865 µM (active) | 1.52 µM (inactive)
COc1cc(C2c3[nH]c4ccccc4c3C[C@H]3COC(=O)N23)cc(OC)c1OC (some centres undefined) | 0.0453 µM (active) | 0.0431 µM (active) | 0.0923 µM (active) | 0.0776 µM (active) | 0.0373 µM (active) | 0.0321 µM (active) | 0.0611 µM (active) | 0.0406 µM (active) | 0.163 µM (active) | – | < 0.01 µM (active) | 0.132 µM (active) | 0.0219 µM (active) | 0.051 µM (active) | 0.0262 µM (active) | 0.131 µM (active) | 0.0411 µM (active) | > 10 µM (inactive) | 0.0336 µM (active) | 0.035 µM (active)
